# Data from patent publication US20230085307A1, “PYRIDAZINONE COMPOUND AND HERBICIDE” (NISSAN CHEMICAL CORPORATION, priority 2019, published 2023).
# Assays:
# [1] = system: southern crabgrass; experiment: Test Example 5: herbicidal effect by foliage application, plastic box (Table 20, symbol F); assay type: in vivo, southern crabgrass (Digitaria ciliaris); conditions: foliage application, three weeks after application
# Method in brief: (§1)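 Plants were sown into sterilized diluvial soil under about 1.5 cm cover and kept in a greenhouse at 25° C. to 30° C. Fourteen days on, foliage received an even spray of the diluted emulsion. Herbicidal or crop effect was judged three weeks afterwards.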
# [2] = system: Italian ryegrass; experiment: Test Example 5: herbicidal effect by foliage application, plastic box (Table 20, symbol K); assay type: in vivo, Italian ryegrass (Lolium multiflorum); conditions: foliage application, three weeks after application
# Method in brief: as §1
# [3] = system: lambsquarters; experiment: Test Example 4: herbicidal effect by soil treatment (Table 19, symbol O); assay type: in vivo, lambsquarters (Chenopodium album)
# Method in brief: (§2)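 Pre-emergence style soil spray: seeds under ~1.5 cm sterilized diluvial soil received a uniform coat of emulsion diluted to the predetermined herbicide amount. Greenhouse 25–30° C; readout at week three on previously defined criteria.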
# [4] = system: windgrass; experiment: Test Example 5: herbicidal effect by foliage application, plastic box (Table 20, symbol L); assay type: in vivo, windgrass (Apera spica-venti); conditions: foliage application, three weeks after application
# Method in brief: as §1
# [5] = system: velvetleaf; experiment: Test Example 5: herbicidal effect by foliage application, plastic box (Table 20, symbol M); assay type: in vivo, velvetleaf (Abutilon theophrasti); conditions: foliage application, three weeks after application
# Method in brief: as §1
# [6] = system: lambsquarters; experiment: Test Example 5: herbicidal effect by foliage application, plastic box (Table 20, symbol O); assay type: in vivo, lambsquarters (Chenopodium album); conditions: foliage application, three weeks after application
# Method in brief: as §1
# [7] = system: southern crabgrass; experiment: Test Example 4: herbicidal effect by soil treatment (Table 19, symbol F); assay type: in vivo, southern crabgrass (Digitaria ciliaris)
# Method in brief: as §2
# [8] = system: chickweed; experiment: Test Example 5: herbicidal effect by foliage application, plastic box (Table 20, symbol P); assay type: in vivo, common chickweed (Stellaria media); conditions: foliage application, three weeks after application
# Method in brief: as §1
# [9] = system: persian speedwell; experiment: Test Example 4: herbicidal effect by soil treatment (Table 19, symbol R); assay type: in vivo, Persian speedwell (Veronica persica)
# Method in brief: as §2
# [10] = system: Italian ryegrass; experiment: Test Example 4: herbicidal effect by soil treatment (Table 19, symbol K); assay type: in vivo, Italian ryegrass (Lolium multiflorum)
# Method in brief: as §2
# [11] = system: windgrass; experiment: Test Example 4: herbicidal effect by soil treatment (Table 19, symbol L); assay type: in vivo, windgrass (Apera spica-venti)
# Method in brief: as §2
# [12] = system: wild oat; experiment: Test Example 4: herbicidal effect by soil treatment (Table 19, symbol I); assay type: in vivo, wild oat (Avena fatua)
# Method in brief: as §2
# [13] = system: green foxtail; experiment: Test Example 5: herbicidal effect by foliage application, plastic box (Table 20, symbol G); assay type: in vivo, green foxtail (Setaria viridis); conditions: foliage application, three weeks after application
# Method in brief: as §1
# [14] = system: blackgrass; experiment: Test Example 5: herbicidal effect by foliage application, plastic box (Table 20, symbol J); assay type: in vivo, blackgrass (Alopecurus myosuroides); conditions: foliage application, three weeks after application
# Method in brief: as §1
# [15] = system: redroot pigweed; experiment: Test Example 5: herbicidal effect by foliage application, plastic box (Table 20, symbol N); assay type: in vivo, redroot pigweed (Amaranthus retroflexus); conditions: foliage application, three weeks after application
# Method in brief: as §1
# [16] = system: blackgrass; experiment: Test Example 4: herbicidal effect by soil treatment (Table 19, symbol J); assay type: in vivo, blackgrass (Alopecurus myosuroides)
# Method in brief: as §2
# [17] = system: wild oat; experiment: Test Example 5: herbicidal effect by foliage application, plastic box (Table 20, symbol I); assay type: in vivo, wild oat (Avena fatua); conditions: foliage application, three weeks after application
# Method in brief: as §1
# [18] = system: barnyard grass; experiment: Test Example 3: herbicidal effect by foliage application, Wagner pot (Table 18, symbol H); assay type: in vivo, barnyard grass (Echinochloa crus-galli)
# Method in brief: (§3)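 Plants were sown in alluvial soil held under 0.1–0.5 cm standing water and grown 14 days in a greenhouse at 25–30 °C. An emulsifiable formulation, water-diluted to the set dose, was then sprayed onto the foliage, and effects were scored three weeks later using previously defined criteria.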
# [19] = system: chickweed; experiment: Test Example 4: herbicidal effect by soil treatment (Table 19, symbol P); assay type: in vivo, common chickweed (Stellaria media)
# Method in brief: as §2
# [20] = system: redroot pigweed; experiment: Test Example 4: herbicidal effect by soil treatment (Table 19, symbol N); assay type: in vivo, redroot pigweed (Amaranthus retroflexus)
# Method in brief: as §2
# [21] = system: rice flat sedge; experiment: Test Example 3: herbicidal effect by foliage application, Wagner pot (Table 18, symbol E); assay type: in vivo, rice flat sedge (Cyperus iria)
# Method in brief: as §3
# [22] = system: barnyard grass; experiment: Test Example 5: herbicidal effect by foliage application, plastic box (Table 20, symbol H); assay type: in vivo, barnyard grass (Echinochloa crus-galli); conditions: foliage application, three weeks after application
# Method in brief: as §1
# [23] = system: barnyard grass; experiment: Test Example 4: herbicidal effect by soil treatment (Table 19, symbol H); assay type: in vivo, barnyard grass (Echinochloa crus-galli)
# Method in brief: as §2
# [24] = system: persian speedwell; experiment: Test Example 5: herbicidal effect by foliage application, plastic box (Table 20, symbol R); assay type: in vivo, Persian speedwell (Veronica persica); conditions: foliage application, three weeks after application
# Method in brief: as §1
# [25] = system: green foxtail; experiment: Test Example 4: herbicidal effect by soil treatment (Table 19, symbol G); assay type: in vivo, green foxtail (Setaria viridis)
# Method in brief: as §2
# [26] = system: velvetleaf; experiment: Test Example 4: herbicidal effect by soil treatment (Table 19, symbol M); assay type: in vivo, velvetleaf (Abutilon theophrasti)
# Method in brief: as §2
# [27] = system: Chinese sprangletop; experiment: Test Example 3: herbicidal effect by foliage application, Wagner pot (Table 18, symbol D); assay type: in vivo, chinese sprangletop (Leptochloa chinensis)
# Method in brief: as §3
# [28] = amount of applied herbicide 320 g/ha
# [29] = amount of applied herbicide 80 g/ha
smiles,measurement,setting,value
CCc1nn(C)c(=O)c(-c2c(-c3ccc(Cl)cc3)sc3ccc(F)cc23)c1O [2-408],"F: southern crabgrass, herbicidal effect grade",[1]; 320 g/ha,4 (Herbicidal rate of 70% or more and less than 90%)
same,"K: Italian ryegrass, herbicidal effect grade",[2]; 320 g/ha,3 (Herbicidal rate of 40% or more and less than 70%)
same,"herbicidal effect, O: lambsquarters",[3]; [28],3 (Herbicidal rate of 40% or more and less than 70%)
same,"L: windgrass, herbicidal effect grade",[4]; 320 g/ha,0 (Herbicidal rate of 5% or less (almost no effect))
same,"M: velvetleaf, herbicidal effect grade",[5]; 320 g/ha,4 (Herbicidal rate of 70% or more and less than 90%)
same,"O: lambsquarters, herbicidal effect grade",[6]; 320 g/ha,5 (Herbicidal rate of 90% or more (almost completely withered))
same,"herbicidal effect, F: southern crabgrass",[7]; [28],0 (Herbicidal rate of 5% or less (almost no effect))
same,"P: chickweed, herbicidal effect grade",[8]; 320 g/ha,5 (Herbicidal rate of 90% or more (almost completely withered))
same,"herbicidal effect, R: persian speedwell",[9]; [28],0 (Herbicidal rate of 5% or less (almost no effect))
same,"herbicidal effect, K: Italian ryegrass",[10]; [28],0 (Herbicidal rate of 5% or less (almost no effect))
same,"herbicidal effect, L: windgrass",[11]; [28],0 (Herbicidal rate of 5% or less (almost no effect))
same,"herbicidal effect, I: wild oat",[12]; [28],0 (Herbicidal rate of 5% or less (almost no effect))
same,"G: green foxtail, herbicidal effect grade",[13]; 320 g/ha,5 (Herbicidal rate of 90% or more (almost completely withered))
same,"J: blackgrass, herbicidal effect grade",[14]; 320 g/ha,0 (Herbicidal rate of 5% or less (almost no effect))
same,"N: redroot pigweed, herbicidal effect grade",[15]; 320 g/ha,5 (Herbicidal rate of 90% or more (almost completely withered))
same,"herbicidal effect, J: blackgrass",[16]; [28],0 (Herbicidal rate of 5% or less (almost no effect))
same,"I: wild oat, herbicidal effect grade",[17]; 320 g/ha,1 (Herbicidal rate of 5% or more and less than 20%)
same,herbicidal effect on H: barnyard grass,[18]; [28],4 (Herbicidal rate of 70% or more and less than 90%)
same,"herbicidal effect, P: chickweed",[19]; [28],0 (Herbicidal rate of 5% or less (almost no effect))
same,"herbicidal effect, N: redroot pigweed",[20]; [28],4 (Herbicidal rate of 70% or more and less than 90%)
same,herbicidal effect on E: rice flat sedge,[21]; [28],5 (Herbicidal rate of 90% or more (almost completely withered))
same,"H: barnyard grass, herbicidal effect grade",[22]; 320 g/ha,3 (Herbicidal rate of 40% or more and less than 70%)
same,"herbicidal effect, H: barnyard grass",[23]; [28],0 (Herbicidal rate of 5% or less (almost no effect))
same,"R: persian speedwell, herbicidal effect grade",[24]; 320 g/ha,5 (Herbicidal rate of 90% or more (almost completely withered))
same,"herbicidal effect, G: green foxtail",[25]; [28],0 (Herbicidal rate of 5% or less (almost no effect))
same,"herbicidal effect, M: velvetleaf",[26]; [28],1 (Herbicidal rate of 5% or more and less than 20%)
same,herbicidal effect on D: Chinese sprangletop,[27]; [28],4 (Herbicidal rate of 70% or more and less than 90%)
CCc1nn(C)c(=O)c(-c2c(-c3ccc(C(F)(F)F)cc3)sc3ccc(F)cc23)c1O [2-410],"F: southern crabgrass, herbicidal effect grade",[1]; 80 g/ha,0 (Herbicidal rate of 5% or less (almost no effect))
same,"K: Italian ryegrass, herbicidal effect grade",[2]; 80 g/ha,0 (Herbicidal rate of 5% or less (almost no effect))
same,"herbicidal effect, O: lambsquarters",[3]; [29],1 (Herbicidal rate of 5% or more and less than 20%)
same,"L: windgrass, herbicidal effect grade",[4]; 80 g/ha,0 (Herbicidal rate of 5% or less (almost no effect))
same,"M: velvetleaf, herbicidal effect grade",[5]; 80 g/ha,1 (Herbicidal rate of 5% or more and less than 20%)
same,"O: lambsquarters, herbicidal effect grade",[6]; 80 g/ha,3 (Herbicidal rate of 40% or more and less than 70%)
same,"herbicidal effect, F: southern crabgrass",[7]; [29],0 (Herbicidal rate of 5% or less (almost no effect))
same,"P: chickweed, herbicidal effect grade",[8]; 80 g/ha,4 (Herbicidal rate of 70% or more and less than 90%)
same,"herbicidal effect, R: persian speedwell",[9]; [29],0 (Herbicidal rate of 5% or less (almost no effect))
same,"herbicidal effect, K: Italian ryegrass",[10]; [29],0 (Herbicidal rate of 5% or less (almost no effect))
same,"herbicidal effect, L: windgrass",[11]; [29],0 (Herbicidal rate of 5% or less (almost no effect))
same,"herbicidal effect, I: wild oat",[12]; [29],0 (Herbicidal rate of 5% or less (almost no effect))
same,"G: green foxtail, herbicidal effect grade",[13]; 80 g/ha,2 (Herbicidal rate of 20% or more and less than 40%)
same,"J: blackgrass, herbicidal effect grade",[14]; 80 g/ha,0 (Herbicidal rate of 5% or less (almost no effect))
same,"N: redroot pigweed, herbicidal effect grade",[15]; 80 g/ha,3 (Herbicidal rate of 40% or more and less than 70%)
same,"herbicidal effect, J: blackgrass",[16]; [29],0 (Herbicidal rate of 5% or less (almost no effect))
same,"I: wild oat, herbicidal effect grade",[17]; 80 g/ha,0 (Herbicidal rate of 5% or less (almost no effect))
same,herbicidal effect on H: barnyard grass,[18]; [29],4 (Herbicidal rate of 70% or more and less than 90%)
same,"herbicidal effect, P: chickweed",[19]; [29],0 (Herbicidal rate of 5% or less (almost no effect))
same,"herbicidal effect, N: redroot pigweed",[20]; [29],3 (Herbicidal rate of 40% or more and less than 70%)
same,herbicidal effect on E: rice flat sedge,[21]; [29],1 (Herbicidal rate of 5% or more and less than 20%)
same,"H: barnyard grass, herbicidal effect grade",[22]; 80 g/ha,3 (Herbicidal rate of 40% or more and less than 70%)
same,"herbicidal effect, H: barnyard grass",[23]; [29],0 (Herbicidal rate of 5% or less (almost no effect))
same,"R: persian speedwell, herbicidal effect grade",[24]; 80 g/ha,4 (Herbicidal rate of 70% or more and less than 90%)
same,"herbicidal effect, G: green foxtail",[25]; [29],1 (Herbicidal rate of 5% or more and less than 20%)
same,"herbicidal effect, M: velvetleaf",[26]; [29],0 (Herbicidal rate of 5% or less (almost no effect))
same,herbicidal effect on D: Chinese sprangletop,[27]; [29],0 (Herbicidal rate of 5% or less (almost no effect))
